# Source: patent US9732367B2, “Cell lines” (MEDIMMUNE LIMITED, priority 2012, dated 2017)
# Columns and labels:
# Format in all cases: cell-based
# [1] = test system: background amber suppression; assay: Background amber suppression (GFPY40 reporter, pylRS/tRNApyl, dnnAA without nnAA); details: for reduction in background amber suppression levels: dnnAA at 0.5 mM, 1 mM and 2 mM; for % Reduction at 2 mM Decoy: reduction in GFP expression relative to control not exposed to dnnAA, 3 days
# Description: The competitive assay for dnnAA inhibition in the presence of a high affinity substrate identified dnnAAs that compete for binding with to the pylRS and thus are specific inhibitors of the pylRS/tRNA. However, the decoy nnAA is intended to reduce the levels of background amber suppression in the absence of nnAA. To determine if background amber suppression levels could be reduced, we incubated cells containing the GFPY40 reporter construct and the pylRS/tRNApyl pair in medium containing one of the dnnAAs. To do this, HEK293 cells stably expressing pylRS were transiently transfected with a tRNA expression construct and the GFPY40 reporter cassette. After 3 days of incubation, cells were assayed for expression of GFP by flow cytometry and geometric mean fluorescence intensity of the samples determined. We have previously observed that cells containing the full complement of the pylRS/tRNA amber suppression system show detectable expression of the GFP reporter construct that is above what is observed in cells lacking the amber suppression system. […] To identify dnnAAs capable of reducing background amber suppression levels the transfected cells were incubated with each of the dnnAAs at 0.5 mM, 1 mM and 2 mM and GFP levels measured by flow cytometry.
# The decrease in background amber suppression dependent GFP expression was dose dependent and improved as the dnnAA concentration increased. […] This feature is an attractive characteristic for platform development as it enables the repression of background amber suppression but the system can be activated upon addition of a strong pylRS substrate such as lys-azide. […] Their efficacy was quantified by the reduction in GFP expression relative to a control sample (not exposed to dnnAA) and the data are summarized in Table 1.
# [2] = biological target: T1, pylRS (Methanosarcina mazei, UniProt Q8PWY1); assay: In vitro GFPY40 functional assay: dnnAA competition with lys azide in HEK293 cells stably expressing pylRS; details: for reduction of GFP expression relative to samples lacking dnnAA (geometric mean fluorescence intensity): lys azide with 0.5 mM, 1 mM and 2 mM dnnAA
# T1 construct: expressed in transfected cells
# T1 sequence (Q8PWY1 whole entry): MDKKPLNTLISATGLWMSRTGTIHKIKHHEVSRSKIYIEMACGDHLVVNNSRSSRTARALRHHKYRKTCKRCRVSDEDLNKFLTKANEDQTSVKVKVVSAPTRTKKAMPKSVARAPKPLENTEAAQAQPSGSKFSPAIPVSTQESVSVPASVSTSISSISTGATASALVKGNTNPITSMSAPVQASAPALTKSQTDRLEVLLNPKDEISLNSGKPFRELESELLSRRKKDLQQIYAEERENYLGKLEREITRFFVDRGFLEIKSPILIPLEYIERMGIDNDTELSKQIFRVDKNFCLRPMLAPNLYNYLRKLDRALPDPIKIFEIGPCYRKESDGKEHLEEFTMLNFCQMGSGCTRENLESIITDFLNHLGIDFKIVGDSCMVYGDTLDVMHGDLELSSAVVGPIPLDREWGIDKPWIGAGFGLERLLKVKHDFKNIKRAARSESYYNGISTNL
# Source text: Effective dnnAAs were identified by their ability to compete with a high affinity substrate for pylRS (lys-azide) in an in vitro assay, for their ability to reduce background amber suppression levels observed with a reporter protein, and for their ability to improve the viability and function of cells previously selected for high pylRS/tRNA activity.
# To identify analogues that could effectively compete for pylRS binding with lys-azide, dnnAAs were first tested for function in an in vitro functional assay based on the ability of cells expressing WT pylRS and tRNApyl to introduce a nnAA at a target site in the reporter protein GFPY40. This reporter contains an amber codon in its open reading frame that, in the absence of amber suppression, generates a truncated protein that is not fluorescent. In the event of amber suppression, a full length GFP protein is generated that is detectable by fluorescence detection methods. In this assay, HEK293 cells stably expressing pylRS, were transiently transfected with a tRNA expression construct and the GFPY40 reporter cassette. Cells were then incubated with 0.5 mM lys azide in the presence or absence of different concentrations of dnnAA ranging from 0.5 mM to 2 mM. GFP fluorescence levels were then quantified by flow cytometry. For this assay the proportion of fluorescent cells in each condition was determined and plotted. As the dnnAAs are expected to compete with the nnAA (lys-azide) for pylRS/tRNA binding, an effective dnnAA should reduce or prevent the expression of full length GFP (as described above dnnAAs can be delivered by the tRNA to the amber site, but cannot propagate protein synthesis).
# A similar in vitro assay was used to gauge the effectiveness of the dnnAAs of Formula VIIB listed in Table 1 where a description of the amino acids tested and a summary of the results are shown For this assay the geometric mean fluorescence intensity of each sample was determined by flow cytometry and plotted. For each dnnAA tested control cells transfected with wild type GFP were measured as a positive control. In addition cells transfected with the reporter GFPY40 and exposed to 0.5 mM lys azide or 2 mM lys azide were used to determine maximal GFP expression levels in the absence of an inhibitor. In each case robust GFP expression levels were observed. To test whether any of the dnnAA could reduce the efficacy of GFP expression, cells were incubated in the presence of 0.5 mM, 1 mM and 2 mM […]. […] Thus, dnnAAs of the present invention can compete with the lys-azide nnAA for binding to the pylRS and interfere with the physiological mechanism of nnAA introduction. Cells transfected with the pylRS/tRNA pair and the GFPY40 reporter construct but not exposed to either lys-azide or a dnnAA were used to determine levels of background amber suppression and used as a negative control. In each case low GFP expression levels were observed.
# [3] = test system: CHO cells stably expressing pylRS and tRNApyl and an IgG directed against her2/neu containing an amber codon; assay: Growth and viability of pylRS/tRNApyl cell line treated with lys azide and dnnAA
# Source text: To examine whether the dnnAAs of the invention could function to improve the viability of cells containing pylRS and tRNApyl we monitored the growth and viability of a cell line, stably expressing pylRS and tRNApyl. For this assay CHO cells stably expressing pylRS and tRNApyl and an IgG directed against her2/neu containing an amber codon in the heavy chain, shown to effectively incorporate nnAA into the expressed IgG thus producing an antibody containing a nnAA, were used for this experiment. Despite a high expression level of pylRS/tRNApyl pair, this cell line has very robust cell growth characteristics when grown in medium lacking nnAA. The presence of a highly expressed target containing an amber codon likely has a protective effect on the cells by supplying them with high levels of amber codons that absorb the amber suppression activity and protects the cells from the effects of background amber suppression at essential genes. However, upon addition of the nnAA (lys-azide) to the growth medium, and activation of the amber suppression machinery, a decrease in cell growth rate is observed. […] To determine whether a dnnAA can rescue this effect, cells cultured in serum free medium were grown to a cell density of 0.5×10^6 cells/mL and subsequently treated with 0.5 mM lys azide alone or in combination with 2 Mm dnnAA. Cell viability and cell numbers were monitored daily over seven days. Cells treated with lys azide alone reached a cell density just below 1×10^6 cells/mL on day 3 after nnAA addition and remained at this density for the remainder of the assay (seven days) (FIG. 15A) The lack of growth was not likely due to loss of viability as the culture retained high viability throughout the experiment (˜70% viable cells) (FIG. 15B) Cultures treated with 2 mM Compound of formula VIIB.4, or 2 mM Formula VIIB.1 in combination with 0.5 mM lys-azide supported continued growth of the culture that reached over 1.5×10^6 cells/mL and retained a cell viability of 90%.
# [4] = biological target: T2, pylRS/tRNA pair (Methanosarcina mazei, UniProt Q8PWY1); assay: GFP assay: translational testing of pyrrolysine analogs as nnAAs; details: nnAA 2 mM, 2-3 days
# T2 construct: expressed in transfected cells; host or cells: HEK293 clone 3H7
# T2 sequence (Q8PWY1 whole entry): as above
# Source text: An in vitro cell based assay was developed to assess the compatibility of the pylRS/tRNA pair and the pyrrolysine analogs of the present invention (nnAAs) by and the efficiency of nnAAs integration into a target protein. For this, HEK293 cells stably expressing pylRS (3H7) were transiently transfected with plasmids for the expression of tRNApyl and a reporter construct encoding GFPY40 (containing amber codon in place of tyrosine at amino acid residue number 40 (where 1 is the initiator methionine)) using standard transfection protocols. Transfected cells were incubated with nnAAs at 2 mM for 2-3 days GFP production was analyzed qualitatively by visual inspection under the microscope. The GFP fluorescence was quantified by flow cytometry using an Accuri flow cytometer and the geometric mean of the fluorescent cells determined.
# This cell based assay was used to determine whether the different nnAAs were suitable substrates for the pylRS and allowed its translation into a target protein. Cells expressing the PylRS/tRNApyl pair and containing a vector encoding the GFPY40 reporter gene were incubated in the presence of the nnAAs. nnAAs that are readily utilized by the PylRS/tRNApyl pair support the translation of the nnAA into the amber site of GFP and allow read-through of the gene producing full length GFP (fluorescent protein). The fluorescence intensity of the cells depends on the efficiency of nnAA incorporation. Thus, nnAAs that are poorly utilized produce weakly fluorescent or non-fluorescing cells. […] Furthermore, the relative expression levels in each sample was compared to those generated by substrates known to be efficiently utilized by pylRS.
# [5] = 2 mM dnnAA with 0.5 mM lys-azide
# [6] = 2 mM dnnAA with 0.5 mM lys-azide, seven days
# [7] = Formula V analogs, geometric mean
compound,measurement,setting,value
"C=CCOC(=O)NCCCCCC(=O)O [Formula VIIB.1, 6-{[(prop-2-en-1-yloxy)carbonyl]amino}hexanoic acid]",reduction in background amber suppression levels,[1],reduction in the background amber suppression levels
same,% Reduction at 2 mM Decoy,[1],62.5%
same,reduction of GFP expression relative to samples lacking dnnAA (geometric mean fluorescence intensity),[2],greatest reduction of GFP expression
same,prevention of cytostatic effects of amber suppression activation,[3]; [5],prevent the cytostatic effects
same,cell viability,[3]; [6],90%
"[N-]=[N+]=NCCOC(=O)NCCCC[C@H](N)C(=O)O [Formula V.1, (2S)-2-amino-6-{[(2-azidoethoxy)carbonyl]amino}hexanoic acid]",viable cells,[3]; 0.5 mM lys azide alone,~70%
same,cell density,"[3]; 0.5 mM lys azide alone, day 3 to day 7",below 1 ×10^6 cells/mL
same,Positive GFP,[4]; Formula V analogs,Yes
same,MFI,[4]; [7],"931,289"
same,MFI,"[4]; Formula V analogs, geometric mean, listed as V.1",931289
"C=CCNC(=O)OCCCC[C@H](N)C(=O)O [Formula VI.3, (2S)-2-amino-6-{[(prop-2-en-1-yl)carbamoyl]oxy}hexanoic acid]",Positive GFP Assay,[4]; Formula VI analogs,incorporated in the GFP reporter gene and yield green cells and Yes
"C#CCOC(=O)NCCCC[C@H](N)C(=O)O [Formula V.2, (2S)-2-amino-6-{[(prop-2-yn-1-yloxy)carbonyl]amino}hexanoic acid]",Positive GFP,[4]; Formula V analogs,Yes
same,MFI,[4]; [7],"1,676,250"
same,MFI,"[4]; Formula V analogs, geometric mean, listed as V.2",1676250
"C#CCOC(=O)NCCCCCC(=O)O [Formula VIIB.5, 6-{[(prop-2-yn-1-yloxy)carbonyl]amino}hexanoic acid]",reduction in background amber suppression levels,[1],reduction in the background amber suppression levels
same,% Reduction at 2 mM Decoy,[1],35%
same,% Reduction at 2 mM Decoy,[1]; listed as VIIB.5,35.0%
same,reduction of GFP expression relative to samples lacking dnnAA (geometric mean fluorescence intensity),[2],relative reduction in GFP expression was much lower
"CC(C)(C)OC(=O)NCCCCCC(=O)O [Formula VIIB.4, 6-{[(tert-butoxy)carbonyl]amino}hexanoic acid]",% Reduction at 2 mM Decoy,[1],46.3%
same,number of fluorescent cells (GFPY40),[2]; 0.5 mM lys azide with dnnAA 0.5 mM to 2 mM,concomitant reduction in the number of fluorescent cells
same,GFP expression with dnnAA alone (amber codon readthrough),"[2]; dnnAA alone, no lys azide",did not induce GFP expression
same,effect on GFPwt expression (non-specific effects),[2]; reporter lacking an amber codon,no effect on protein expression
same,prevention of cytostatic effects of amber suppression activation,[3]; [5],prevent the cytostatic effects
same,cell viability,[3]; [6],90%
"[N-]=[N+]=NCCOC(=O)NCCCCCC(=O)O [Formula VIIB.6, 6-{[(2-azidoethoxy)carbonyl]amino}hexanoic acid]",reduction in background amber suppression levels,[1],reduction in the background amber suppression levels
same,% Reduction at 2 mM Decoy,[1],32%
same,% Reduction at 2 mM Decoy,[1]; listed as VIIB.6,32.7%
same,reduction of GFP expression relative to samples lacking dnnAA (geometric mean fluorescence intensity),[2],greatest reduction of GFP expression
"O=C(O)CCCCCNC(=O)OCCCl [Formula VIIB.3, 6-{[(2-chloroethoxy)carbonyl]amino}hexanoic acid]",reduction in background amber suppression levels,[1],reduction in the background amber suppression levels
same,% Reduction at 2 mM Decoy,[1],49.7%
same,reduction of GFP expression relative to samples lacking dnnAA (geometric mean fluorescence intensity),[2],greatest reduction of GFP expression
same,cell density,[3]; [6],< 0.5 ×10^6 cells/mL
same,cell viability,[3]; [6],30-40%
"[N-]=[N+]=NCCNC(=O)OCCCC[C@H](N)C(=O)O [Formula VI.1, (2S)-2-amino-6-{[(2-azidoethyl)carbamoyl]oxy}hexanoic acid]",MFI,[4]; Formula VI analogs,904206
same,Positive GFP Assay,[4]; Formula VI analogs,incorporated in the GFP reporter gene and yield green cells and Yes
